The source of these data is the RepoRT retention time repository (doi:10.1007/s00216-015-8540-6).

This data set is described as follows: Waters Atlantis T3, 100 × 2.1 mm, 3 µm, 0.1 mL/min, estimated dead time 2.2 min; A: water + 0.01% formic acid; B: methanol + 0.01% formic acid; gradient (min/%B) 0/5 3/5 20/100 29/100. As to conditions: stereoisomer not certain.
As for `CCN(CC)CC(=O)Nc1c(C)cccc1C`, the LC retention time was 13.4 min.
On to `CC(C)NCC(O)COc1cccc2ccccc12` (stereo unspecified), for which the LC retention time is 16.2 min.
To `CN(C)C(=N)N=C(N)N` belongs 3.04 min; to `CCC1(c2ccccc2)C(=O)NCNC1=O`, 17.1 min; to `CN1CCN2c3ncc(O)cc3Cc3ccccc3C2C1` (stereo unspecified), 13.6 min.
The figure for `Cn1c([N+](=O)[O-])cnc1COC(N)=O` is 13.2 min.
In the case of `Cc1noc(NS(=O)(=O)c2ccc(N)cc2)c1C`, the LC retention time was 14.6 min.
The figure for `CN(C)CCC=C1c2ccccc2COc2ccccc21` is 16.7 min.
The figure for `CCC1OC(=O)CC(O)C(C)C(OC2OC(C)C(OC3CC(C)(O)C(O)C(C)O3)C(N(C)C)C2O)C(CC=O)CC(C)C(=O)C=CC(C)=CC1COC1OC(C)C(O)C(OC)C1OC` (stereo unspecified) is 17.6 min; for `CC(N)Cc1ccccc1` (stereo unspecified) it is 12.6 min.
For the compound `CC1=C(C(=O)O)N2C(=O)C(NC(=O)C(N)c3ccccc3)C2SC1` (stereo unspecified), the LC retention time was 11.8 min.
The figure for `CN(C)CCC=C1c2ccccc2CCc2ccccc21` is 17.9 min; for `CN(C)CCCN1c2ccccc2CCc2ccccc21` it is 17.6 min; for `COc1cc(Cc2cnc(N)nc2N)cc(OC)c1OC` it is 12.9 min.
To `CNC(C)Cc1ccccc1` (stereo unspecified) belongs 12.8 min; to `CNC(C)C(O)c1ccccc1` (stereo unspecified), 11.7 min.
Turning to `CC(=O)Oc1ccc2c3c1OC1C(OC(C)=O)C=CC4C(C2)N(C)CCC341` (stereo unspecified), the LC retention time was 14.1 min.
The figure for `CC12CCC(=O)C=C1CCC1C2C(=O)CC2(C)C1CCC2(O)C(=O)CO` (stereo unspecified) is 20 min; for `CC(C)NCC(O)COc1ccc(CC(N)=O)cc1` (stereo unspecified) it is 11.3 min; for `CC(C(=O)O)c1cccc(C(=O)c2ccccc2)c1` (stereo unspecified) it is 21.8 min.
For `CN(C)C1C(=O)C(C(N)=O)=C(O)C2(O)C(=O)C3=C(O)c4c(O)cccc4C(C)(O)C3CC12` (stereo unspecified), the LC retention time is 14.5 min.
The figure for `Cc1nnc(SCC2=C(C(=O)O)N3C(=O)C(NC(=O)Cn4cnnn4)C3SC2)s1` (stereo unspecified) is 17.6 min; for `CN1CCC23c4c5ccc(O)c4OC2C(O)C=CC3C1C5` (stereo unspecified) it is 9.52 min.
To `CCOc1cc(OC)c(OCC)cc1CC(C)N` (stereo unspecified) belongs 3.15 min; to `CC1(C)SC2C(NC(=O)C(N)c3ccc(O)cc3)C(=O)N2C1C(=O)O` (stereo unspecified), 11.2 min.
To `NC(=O)N1c2ccccc2C=Cc2ccccc21` belongs 20.2 min.
For the compound `COc1ccc2nc(S(=O)Cc3ncc(C)c(OC)c3C)[nH]c2c1` (stereo unspecified), the LC retention time was 18.7 min.
To `CCNC(C)Cc1ccc2c(c1)OCO2` (stereo unspecified) belongs 13.4 min; to `CCCCCc1cc(O)c2c(c1C(=O)O)OC(C)(C)C1CCC(C)=CC21` (stereo unspecified), 26.9 min; to `COc1ccc2c3c1OC1C(O)C=CC4C(C2)N(C)CCC341` (stereo unspecified), 11.8 min.
The figure for `CCn1cc(C(=O)O)c(=O)c2cc3c(cc21)OCO3` is 18.3 min; for `CC(=O)C1CCC2C3CCC4=CC(=O)CCC4(C)C3CCC12C` (stereo unspecified) it is 24.8 min; for `CC1CC2C(C(O)CC3(C)C2CCC3(O)C(=O)CO)C2(C)C=CC(=O)C=C12` (stereo unspecified) it is 21.4 min.
For the compound `CNCCC=C1c2ccccc2CCc2ccccc21`, the LC retention time was 18 min.
Regarding `CCOP(=O)(Sc1ccccc1)Sc1ccccc1`, the LC retention time was 16.2 min.
To `COc1ccc2c3c1OC1C(=O)CCC4(O)C(C2)N(C)CCC314` (stereo unspecified) belongs 12.1 min; to `COCCc1ccc(OCC(O)CNC(C)C)cc1` (stereo unspecified), 11.2 min.
Turning to `CN(C)C1C(=O)C(C(N)=O)=C(O)C2(O)C(=O)C3=C(O)c4c(O)cccc4C(C)(O)C3C(O)C12` (stereo unspecified), the LC retention time was 14.8 min.
The figure for `CC(N)C(O)c1ccccc1` (stereo unspecified) is 10.9 min; for `CCN(CC)C(=O)C1C=C2c3cccc4[nH]cc(c34)CC2N(C)C1` (stereo unspecified) it is 15.1 min; for `CCC1OC(=O)C(C)C(OC2CC(C)(OC)C(O)C(C)O2)C(C)C(OC2OC(C)CC(N(C)C)C2O)C(C)(OC)CC(C)C(=O)C(C)C(O)C1(C)O` (stereo unspecified) it is 18.7 min.
The figure for `COc1ccc(C(CN(C)C)C2(O)CCCCC2)cc1` (stereo unspecified) is 15.7 min; for `Cn1c(=O)c2c(ncn2C)n(C)c1=O` it is 15.2 min.
As to `CCC(=O)C(CC(C)N(C)C)(c1ccccc1)c1ccccc1` (stereo unspecified), the LC retention time was 17.6 min.
The figure for `CNC(=C[N+](=O)[O-])NCCSCc1ccc(CN(C)C)o1` is 11.4 min.
Take `Cc1cc2c(s1)Nc1ccccc1N=C2N1CCN(C)CC1`: the LC retention time was 12.6 min.
On to `CC(N)Cc1ccc2c(c1)OCO2` (stereo unspecified), for which the LC retention time was 12.9 min.
The figure for `CC1(C)OC2COC3(COS(N)(=O)=O)OC(C)(C)OC3C2O1` (stereo unspecified) is 18.3 min; for `CC(=O)Nc1ccc(O)cc1` it is 13.3 min; for `CC12CCC(=O)C=C1CCC1C2C(O)CC2(C)C1CCC2(O)C(=O)CO` (stereo unspecified) it is 20.6 min.
For `CCCCC(=O)N(Cc1ccc(-c2ccccc2-c2nn[nH]n2)cc1)C(C(=O)O)C(C)C` (stereo unspecified), the LC retention time is 24.4 min.
To `C=CC1(C)CC(OC(=O)CSCCN(CC)CC)C2(C)C(C)CCC3(CCC(=O)C32)C(C)C1O` (stereo unspecified) belongs 17.3 min.
On to `CC(=O)OC1C=CC2C3Cc4ccc(O)c5c4C2(CCN3C)C1O5` (stereo unspecified), for which the LC retention time was 12.5 min.
To `CNC(C)Cc1ccc2c(c1)OCO2` (stereo unspecified) belongs 13 min; to `COc1cccc(C2(O)CCCCC2CN(C)C)c1` (stereo unspecified), 14.2 min.
To `O=C1CN=C(c2ccccc2)c2cc([N+](=O)[O-])ccc2N1` belongs 20.4 min; to `Cc1ncc([N+](=O)[O-])n1CCO`, 13.3 min; to `CN1C2CCC1C(C(=O)O)C(OC(=O)c1ccccc1)C2` (stereo unspecified), 15.7 min.
The figure for `CCC(C)(C)C(=O)OC1CC(C)C=C2C=CC(C)C(CCC3CC(O)CC(=O)O3)C21` (stereo unspecified) is 27.1 min; for `CC1=C(C(=O)O)N2C(=O)C(NC(=O)C(N)c3ccc(O)cc3)C2SC1` (stereo unspecified) it is 11.8 min.
For `COC12CCC3(CC1C(C)(O)C(C)(C)C)C1Cc4ccc(O)c5c4C3(CCN1CC1CC1)C2O5` (stereo unspecified), the LC retention time was 16.8 min.
For `CCC1OC(=O)C(C)C(OC2CC(C)(OC)C(O)C(C)O2)C(C)C(OC2OC(C)CC(N(C)C)C2O)C(C)(O)CC(C)CN(C)C(C)C(O)C1(C)O` (stereo unspecified), the LC retention time is 18.7 min.
Turning to `CN1CCN2c3ncccc3Cc3ccccc3C2C1` (stereo unspecified), the LC retention time was 14.6 min.
For `COC(=O)C1C(OC(=O)c2ccccc2)CC2CCC1N2C` (stereo unspecified), the LC retention time was 14.3 min.
The figure for `CN=C(NC#N)NCCSCc1nc[nH]c1C` is 11.5 min.
For `CCC(C(N)=O)N1CCCC1=O` (stereo unspecified), the LC retention time was 13.7 min.
